Values of other authors in US20190037897A1, “AMORPHOUS COOLER DISPERSION COMPOSITION” (International Flavors & Fragrances Inc., priority 2016, published 2019).

conditions: compared to menthol (as 100)

Q: With `CCNC(=O)C1CC(C)CCC1C(C)C` (stereo not shown) [WS-3, N-Ethyl-p-menthane-3-carboxamide] as the compound, how does the relative cooling strength read?
A: Its relative cooling strength is 150.

Q: With `COc1ccc(NC(=O)[C@@H]2C[C@H](C)CC[C@H]2C(C)C)cc1` [WS-12, (1R,2S,5R)-N-(4-Methoxyphenyl)-p-menthanecarboxamide] as the compound, how does the relative cooling strength read?
A: Its relative cooling strength is 150.

Q: For `CC1CCC(C(C)C)C(O)C1` (stereo not shown) [menthol], which relative cooling strength is on record?
A: The relative cooling strength was 100.

Q: With “Ethyl 3-(p-menthane-3-carboxamido)acetate [WS-5]” as the compound, how does the relative cooling strength read?
A: The relative cooling strength was 400.
